Measurements: publication PMC4673272, “Oral nano-delivery of anticancer ginsenoside 25-OCH3-PPD, a natural inhibitor of the MDM2 oncogene: Nanoparticle preparation, characterization, in vitro and in vivo anti-prostate cancer activity, and mechanisms of action” (Oncotarget, 2015)

Experiments:
[1] = system: MDM2; test: Western blotting of MDM2 and apoptosis-related proteins in prostate cancer cells; type: cell-based, Human; conditions: 2.5 μg/mL, 24 h, LNCaP, DU145, PC3 cells
Method: In the in vitro studies, prostate cancer cells with or without GS25 or GS25NP treatment were lysed in NP40 lysis buffer containing a protease inhibitor mixture (Sigma, St. Louis, MO, USA). In the in vivo studies, tumor tissues were removed and homogenized in NP40 lysis buffer (100 mg tumor tissue/1 mL NP40 buffer), and the supernatants of the homogenates was collected. Then, the cell lysates and tumor homogenates were subjected to Western blotting analyses for the expression levels of MDM2 and other related proteins using the methods described in our previous studies.

[2] = system: Caco-2 cell monolayers; test: Caco-2 cell monolayer permeability assay; type: in vitro ADME, Human; conditions: apical to basolateral, 37°C, pH 6.0
Method: The Caco-2 cell monolayer permeability assay was performed as reported previously. In brief, Caco-2 cells were seeded onto polycarbonate 6-well Transwell® inserts (mean pore size 3.0 μm, Corning Costar Inc., NY, USA) at a density of 4 × 10^5 cells/well, then the confluent monolayers (10–12 days) were used for permeability studies. The transepithelial electrical resistance (TEER) of the monolayer was measured using an epithelial voltohmmeter (EVOM, WPI Inc., USA) to determine the formation of the monolayer and its integrity during the experiment. The studies were carried out in HBSS containing 30 mM HEPES at pH 6.0. Monolayers were washed with HBSS prior to the experiment, after which 0.5 and 1.2 mL of HBSS was placed into the upper and lower compartments, respectively. A total volume of 100 μL of solution (1 or 5 μg/mL) was taken from the lower compartment at regular intervals over 120 min and replaced with the same volume of fresh buffer, followed by a LC-MS/MS analysis. Apparent permeability coefficients (Papp) were calculated using the equation: (∂Q/∂t)/(A*C0), where “∂Q/∂t” is the permeability rate of the drug across the cells, “A” is the diffusion area of the monolayer and “C0” is the initial concentration of GS25 in the upper compartment.

[3] = system: DU145 cells; test: Apoptosis, Annexin V-FITC, DU145; type: cell-based, Human; conditions: DU145, 12.3 μg/mL, 48 h
Method: (§1) Assays for cell viability and apoptosis were performed as described previously. In brief, 3–4 × 10^4 cells were seeded in a 96-well plate and treated with various concentrations of GS25 or GS25NP for 24, 48, or 72 h for the MTT assay. To detect apoptosis, 2–3 × 10^5 cells were seeded in 6-well plates and were treated with GS25 or GS25NP for 48 h. Cells positive for Annexin V-FITC and PI were counted on a BD FACSVerse instrument (BD Biosciences, CA, USA).

[4] = system: LNCaP cells; test: Apoptosis, Annexin V-FITC, LNCaP; type: cell-based, Human; conditions: 12.3 μg/mL, 48 h
Method: as §1

[5] = Maximum tolerated dose (MTD) study; type: in vivo; conditions: CD-1 mice, oral
Method: To assess the possible host toxicity of GS25 and GS25NP and establish initial doses for in vivo treatment, a multi-dose MTD study was initially performed for both GS25 and GS25NP at a dose of 200 mg/kg for 7 days. […] The toxicity studies were continued with dose of 400 mg/kg/d for 7 days using a similar protocol. At the end of the study, all mice were euthanized, and various tissues (liver, lungs, kidneys, spleen, heart, and brain) were collected for a pathological analysis.

[6] = system: PC3 xenograft tumors; test: In vivo efficacy and host toxicity in PC3 prostate cancer xenograft model; set-up: species or system nude mice
Method: The animal study protocol was approved by the Institutional Animal Use and Care Committee of the Texas Tech University Health Sciences Center. Male athymic pathogen-free nude mice (nu/nu, 4–6 weeks) were purchased from Charles River Laboratories (Wilmington, MA). The PC3 human prostate cancer xenografts were established as reported previously. Briefly, a total of 5 × 10^6 PC3 cells (in 0.1 mL) were subcutaneously injected into the left inguinal area of the mice. All animals were monitored for activity, physical condition, body weight, and tumor growth. When the tumor volume reached ~ 100 mm^3, the mice bearing PC3 xenografts were randomly divided into treatment and control groups (10 mice/each group). GS25NP was dissolved in water and administered by oral gavage at a dose of 20 mg/kg/d or 100 mg/kg/d, 5 day/week for 4 weeks, while GS25 in PEG400:EtOH:saline (57.1:14.3:28.6, v/v/v) was administered at a dose of 100 mg/kg/d for 4 weeks. The control groups received vehicle only or void NPs. At the end of the experiment, xenograft tumors and various organs (liver, lungs, kidneys, spleen, heart, and brain) were excised and snap frozen for Western blotting, immunohistochemical studies, TUNEL assays, and hematoxylin and eosin staining.
All of the staining assays were performed as described previously. Briefly, tissues were fixed and embedded in paraffin, cut into 5 μm sections, and then affixed onto glass slides. For the immunohistochemical studies, the tumor sections were blocked and incubated with a biotinylated anti-human MDM2 antibody (diluted 1:50 in 5% BSA in PBS) for 1–2 h at room temperature. Sections were then incubated with pre-diluted streptavidin-peroxidase HRP conjugates and stained with DAB chromogen according to the manufacturer's instructions. Finally, sections were lightly counterstained with hematoxylin. […] Tissue sections were analyzed under a phase-contrast Olympus microscope (Olympus America Inc).

[7] = system: PC3 cells; test: Apoptosis, Annexin V-FITC, PC3; type: cell-based, Human; conditions: PC3, 12.3 μg/mL, 48 h
Method: as §1

[8] = system: LNCaP (p53 wild-type) cells; test: Cell viability, MTT assay, LNCaP; type: cell-based, Human; conditions: GS25 equivalent
Method: as §1

[9] = Pharmacokinetics and biodistribution in CD-1 mice; type: in vivo
Method: Pharmacokinetic studies were carried out in normal CD-1 mice and nude mice bearing PC3 xenograft tumors as described previously. Briefly, male CD-1 mice were divided randomly into four groups with three mice per time point. One group received 20 mg/kg of GS25 in PEG400:EtOH:saline by intravenous injection into the tail vein. One group of mice received GS25 in PEG400:EtOH:saline (57.1:14.3:28.6, v/v/v) at a dose of 100 mg/kg by oral administration. Two groups received GS25NP at a dose of 20 mg/kg and 100 mg/kg by oral administration. Nude mice bearing PC3 xenografts were divided into two groups and given GS25 and GS25NP at a dose of 100 mg/kg by oral administration. For orally-dosed mice, the plasma and various tissues (tumor, liver, lungs, kidneys, spleen, heart, brain, pancreas, fat, stomach, stomach contents, small intestine, small intestine contents, large intestine, and large intestine contents) were collected at 0, 15, 30, and 60 min, and 2, 4, 8, 24, 48, and 72 h after treatment. For mice that received an i.v. injection, various tissues were collected at 0, 5, 10, 30, and 60 min, and 2, 4, 8, 24, 48, and 72 h after treament. The plasma and tissue samples were stored at −80°C until they were analyzed by LC-MS/MS.

[10] = system: PC3 (p53 null) cells; test: Cell viability, MTT assay, PC3; type: cell-based, Human; conditions: GS25 equivalent
Method: as §1

[11] = system: DU145 (p53 mutant) cells; test: Cell viability, MTT assay, DU145; type: cell-based, Human; conditions: GS25 equivalent
Method: as §1

[12] = nude mice bearing PC3 xenografts, 4-week oral treatment (GS25 100 mg/kg; GS25NP 20 and 100 mg/kg)

Compound: COC(C)(C)CCC[C@](C)(O)[C@H]1CC[C@]2(C)[C@@H]1[C@H](O)C[C@@H]1[C@@]3(C)CC[C@H](O)C(C)(C)[C@@H]3CC[C@]12C [GS25, 20(s)-25-methoxyl-dammarane-3beta, 12beta, 20-triol]
- Effect on MDM2 and apoptosis-associated protein levels (p53, Bax, cleaved-PARP) [1]: did not produce significant effects
- Apparent permeability coefficient (Papp) [2]: 38 ×10⁻⁶ cm/s
- Apoptotic cells [3]: 18.2%
- Apoptotic cells [4]: 28.5%
- Body weight change in MTD study ([5]; 200 or 400 mg/kg/d for 7 days): No significant decrease in mouse body weight
- Histological examination of liver, lungs, kidneys, spleen, heart, brain vs vehicle ([5]; 200 or 400 mg/kg/d for 7 days): no significant differences among the groups
- Toxicity in MTD study ([5]; up to 400 mg/kg/d for 7 days): no toxicity
- Inhibition of PC3 xenograft tumor growth ([6]; 100 mg/kg oral, 5 days/week for 4 weeks): approximately 41%
- Change in average body weight [6, 12]: no significant changes in the average body weights
- Histological findings in liver, lungs, kidneys, spleen, heart, brain vs control [6, 12]: no significant differences in the histological findings
- Apoptotic cells [7]: 22.9%
- IC50 LNCaP ([8]; treatment time 24 h): 18.3 µg/mL
- IC50 LNCaP ([8]; treatment time 48 h): 11.6 µg/mL
- IC50 LNCaP ([8]; treatment time 72 h): 8.0 µg/mL
- Oral bioavailability ([9]; 100 mg/kg oral vs 20 mg/kg i.v.): ~ 14.9%
- AUC0-t ([9]; plasma, 100 mg/kg, p.o.): 3500 ng·h/mL
- Cmax ([9]; plasma, 100 mg/kg, p.o.): 900 ng/mL
- T1/2 ([9]; plasma, 100 mg/kg, p.o.): 2.1 h
- IC50 PC-3 ([10]; treatment time 24 h): 10.9 µg/mL
- IC50 PC-3 ([10]; treatment time 48 h): 6.7 µg/mL
- IC50 PC-3 ([10]; treatment time 72 h): 3.8 µg/mL
- IC50 DU145 ([11]; treatment time 24 h): 13.1 µg/mL
- IC50 DU145 ([11]; treatment time 48 h): 8.0 µg/mL
- IC50 DU145 ([11]; treatment time 72 h): 5.4 µg/mL
